From patent US10557124B2, “Compositions and methods for obtaining stem cell derived lung tissue, and related uses thereof” (The Regents of the University of Michigan, priority 2015, dated 2020)

Experiments:
Type in all cases: cell-based, human
[1] = test system: anterior foregut endoderm (hESC-derived, ActivinA then NOG/SB); assay: qRT-PCR of SHH, NKX2.1, PAX8 in foregut endoderm monolayer cultures treated with FGF/HH modulators; details: for PAX8 expression / SHH expression / NKX2.1 expression: vs foregut control (FGF2: vs untreated endoderm controls), FGF2 50/500 ng/mL; for PAX8 expression / NKX2.1 expression: Sant-2 10 μM
Source text: Many signaling pathways are important for lung induction and development (see, e.g., Wong A P, et al., Nat Biotechnol. 2012 Aug. 26; Huang S X L, et al., Nature; 2013 Dec. 1; 1-11; Firth A L, et al., Proceedings of the National Academy of Sciences. 2014 Apr. 29; 111(17):E1723-30; Mou H, et al., Cell Stem Cell. 2012 Apr. 6; 10(4):385-97; Ghaedi M, et al., J. Clin. Invest. 2013 Nov. 1; 123(11):4950-62; Longmire T A, et al., Cell Stem Cell. 2012 Apr. 6; 10(4):398-411; Rankin S A, Zorn A M. Gene Regulatory Networks Governing Lung Specification. J Cell Biochem. 2014 Mar. 19; Morrisey E E, et al., Developmental Cell. Elsevier Inc; 2010 Jan. 19; 18(1):8-23; Min H, et al., Genes & Development. 1998 Oct. 15; 12(20):3156-61; Weaver M, et al., Development. 2000 June; 127(12):2695-704). […] 2011 Feb. 3; 470(7332):105-9; Wells J M, et al., Development. 2014 February; 141(4):752-60; Motoyama J, et al., Nat Genet. 1998 September; 20(1):54-7) and Hh signaling is important for lung mesenchyme proliferation in vivo (see, e.g., Bellusci S, et al., Development. 1997 January; 124(1):53-63). […] It has been reported that approximately 85-95% of cells are endoderm, but a portion of the remaining cells are mesodermal and this small mesodermal population is maintained in the spheroids and organoids (see, e.g., Spence J R, et al., Nature. 2011 Feb. 3; 470(7332):105-9; McCracken K W, et al., Nature; 2014 Oct. 29; 1-19; Green M D, et al., Nat Biotechnol.; 2011 Feb. 27; 1-7) (FIG. 4). Therefore, based on mouse and hPSC studies, it was hypothesized that FGF and/or HH signaling would induce an NKX2.1+ lung lineage in anterior foregut endoderm. To test this hypothesis experiments initially focused on adherent endoderm monolayer cultures to optimize induction conditions. Cultures were treated for 4 days with ActivinA followed by an additional 4 days with NOG/SB (referred to as Foregut). Controls consisted of ActivinA treatment only followed by no additional growth factors (Endoderm controls), or ActivinA followed by NOG/SB, followed by no additional factors (Foregut controls). All experimental groups were compared to both endoderm and foregut controls (FIG. 6). The ability of FGF2 to induce SHH, NKX2.1 and PAX8 was first tested by exposing foregut cultures to low and high concentrations of FGF2 (50,500 ng/mL) (FIG. 6A). […] It was also observed that dual NOG/SB inhibition in endoderm cultures induced robust NKX2.1 and PAX8 expression without adding FGF2 (FIG. 1B, 6A). Thus, it was desired to determine if NKX2.1 expression in foregut cultures was due to endogenous FGF and/or HH signaling. To test this, the FGF or HH pathway was inhibited with small molecules SU5402 (SU, 10 μm) and Sant-2 (10 μm) respectively (FIG. 6B-C). Treating foregut cultures with the FGF inhibitor SU caused a significant, robust reduction in PAX8 and a modest reduction in SHH, while NKX2.1 expression was unchanged compared to foregut control (FIG. 6B). […] To test if HH signaling was able to induce NKX2.1 in foregut cultures, the Smoothened agonist, SAG (1 μM), was added to foregut cultures. The addition of SAG induced a 6.5 fold increase of NKX2.1 expression above foregut controls (FIG. 6D).
This combination caused an additional increase in NKX2.1 expression (21 fold vs. 6.5 fold with SAG only, when compared to foregut) and a concomitant decrease in PAX8 mRNA (FIG. 6D).
(§1) After differentiation into definitive endoderm, foregut endoderm was differentiated, essentially as described (see, e.g., Green M D, et al., Nat Biotechnol. Nature Publishing Group; 2011 Feb. 27; 1-7). Briefly, cells were incubated in foregut media: Advanced DMEM/F12 plus N-2 and B27 supplement, 10 mM Hepes, lx L-Glutamine (200 mM), lx Penicillin-streptomycin (5,000 U/mL, all from Life Technologies) with 200 ng/mL Noggin (NOG, R&D Systems) and 10 μM SB431542 (SB, Stemgent) for 4 days. […]

[2] = test system: anterior foregut endoderm (hESC-derived, ActivinA then NOG/SB); assay: Immunofluorescence of NKX2.1 and PAX8 positive cells in foregut monolayer cultures; details: compared to endoderm and foregut controls
Protocol: Importantly, immunofluorescence correlated with QRT-PCR data showing an increased number of NKX2.1+ cells with the addition of SAG only. […] SAG and SAG+SU treated cells also co-expressed FOXA2 and SOX2 confirming their endodermal origin (FIG. 2).
as §1
HLOs with P63+ cells were counted as having proximal airway-like epithelium and HLOs with SFTPC+ cells were counted as having distal airway-like epithelium. The area of proximal epithelium was determined by P63+ECAD+ staining. Area was measured using ImageJ software. Cell quantification of NKX2.1, P63, and DAPI was counted by Metamorph cell counting software. FOXJ1, SFTPC, and HOPX were counted in ImageJ using the cell counter plugin.

[3] = test system: foregut spheroids (NOG+SB+FGF4+Ch); assay: qRT-PCR of foregut spheroids generated with addition of HH agonist SAG; details: SAG added to NOG+SB+FGF4+Ch spheres; compared to spheres without SAG
Protocol: Based on the observations that stimulating HH and inhibiting FGF signaling strongly enhances NKX2.1 expression while reducing PAX8 expression (FIG. 5), multiple conditions of HH activation and FGF inhibition to induce NKX2.1^HI/PAX8^LO foregut spheroids (NOG/SB/F/Ch) were tested (FIG. 8). […] Therefore, several conditions were also tested that stimulated HH signaling using SAG only, without FGF inhibition. […] Additionally, nuclear NKX2.1 protein expression was found in ECAD+ epithelium which co-expressed endoderm epithelial markers FOXA2 and SOX2 (FIG. 10B, C, FIG. 11). […] Thus, concomitant down-regulation of SOX2 and increased NKX2.1 observed in SAG treated foregut spheroids is consistent with early transcriptional changes that occur during lung specification in mice.
After differentiation into definitive endoderm, cells were incubated in foregut media with NOG, SB, 500 ng/mL FGF4 (R&D Systems), and 2 μM CHIR99021 (Chiron, Stemgent) for 4-6 days. After 4 days with treatment of growth factors, three-dimensional floating spheroids were present in the culture. Three-dimensional spheroids were transferred into Matrigel to support 3D growth as previously described (see, e.g., McCracken K W, et al., Nature Protocols; 2011 Nov. 10; 6(12):1920-8). Briefly, spheroids were embedded in a droplet of Matrigel (BD Bioscience #356237) in one well of a 24 well plate, and incubated at room temperature for 10 minutes. After the Matrigel solidified, foregut media with 1% Fetal bovine serum (FBS, CAT#: 16000-044, Life Technologies) or other growth factors and small molecules were overlaid and replaced every 4 days. Organoids were transferred into new Matrigel droplets every 10 to 15 days.
RNA was extracted from monolayers, spheroids, and organoids using a MagMAX-96 Total RNA Isolation Kit (Life Technologies) and MAG Max Express (Applied Biosystems). RNA quantity and quality were determined spectrophotometrically, using a Nano Drop 2000 (Thermoscientific). Reverse transcription was conducted using the SuperScript VILO kit (Invitrogen), according to manufacturer's protocol. Finally, qRT-PCR was carried out using Quantitect Sybr Green MasterMix (Qiagen) on a Step One Plus Real-Time PCR system (Life Technologies).

[4] = test system: NOG/SB/F/Ch/SAG treated foregut spheroids; assay: Expansion of foregut spheroids in Matrigel into lung organoids; details: FGF10 500 ng/mL, Matrigel 3D culture
Source text: NOG/SB/F/Ch/SAG treated foregut spheroids were embedded in Matrigel to provide a 3D growth environment. Spheroids maintained in basal media supplemented with 1% FBS lost ECAD+ epithelial structures and were mainly comprised of mesenchyme within 20 days of 3D culture (FIG. 9D,E). FGF10 is essential for branching morphogenesis and maintenance of lung progenitor cells during development as well as tissue homeostasis in the adult lung (see, e.g., Motoyama J, et al., Nat Genet. 1998 September; 20(1):54-7; Li Y, et al., Developmental Biology. 2004 Jun. 1; 270(1):214-31; Bellusci S, et al., Development. 1997 January; 124(1):53-63; Min H, et al., Genes & Development. 1998 Oct. 15; 12(20):3156-61; Weaver M, et al., Development. 2000 June; 127(12):2695-704; Agha El E, et al., Development. 2013 Dec. 18; Volckaert T, et al., Development 2013 September; 140(18):3731-42). It was observed that the addition of FGF10 (500 ng/mL) allowed spheroids to expand and be passaged for over 100 days. FGF10 promoted the maintenance of ECAD+ epithelial structures with less mesenchymal contributions compared to both basal and FGF inhibitor conditions (FIG. 10D). […] SOX2+ domains and SOX9+ domains were distributed throughout the entire HLO as determined by whole mount immunofluorescence and confocal Z-sections (FIG. 14). […]

CNC1CCC(N(Cc2cccc(-c3ccncc3)c2)C(=O)c2sc3ccccc3c2Cl)CC1 (stereo not shown) [SAG] was tested, and the “increase of NKX2.1 expression” value ([1]; foregut endoderm treated 8 days, SAG 1 μM, SU 10 μM, compared to untreated foregut controls) was 6.5 fold, the PAX8 expression ([1]; SU 10 μM, SAG 1 μM) was “unchanged” and the “NKX2.1+ cells (immunohistochemistry)” value [2] was “more NKX2.1+ cells”. The CDX2 transcript [3] was “reduction”, the HHEX transcript [3] was “not significantly different” and the NKX2.1 transcript [3] was “significant increase”. The PAX8 transcript [3] was “not significantly different”, the PDX1 transcript [3] was “not significantly different” and the SOX2 transcript [3] was “reduction”.

For Cc1c[nH]c(/C=C2\C(=O)Nc3ccccc32)c1CCC(=O)O [SU5402], the GLI1 expression ([1]; compared to foregut controls) was “not significantly different”, the PTCH1 expression ([1]; compared to foregut controls) was “not significantly different” and the SHH expression ([1]; SU 10 μM) was “significant reduction”. For the same molecule, the NKX2.1 expression ([1]; SU 10 μM) was “not significantly different” and the PAX8 expression ([1]; SU 10 μM, SAG 1 μM) was “significant reduction”.

With “FGF2: fibroblast growth factor 2 (R&D systems)” the SHH expression ([1]; SU 10 μM) was “dose dependent increase”, the NKX2.1 expression ([1]; SU 10 μM) was “modest increase” and the PAX8 expression ([1]; SU 10 μM, SAG 1 μM) was “dose dependent increase”.

In the case of Sant-2, the NKX2.1 expression ([1]; SU 10 μM) is reported as “significant reduction”.

B1: FGF10: protein that belongs to the fibroblast growth factor (FGF) family (protein, UniProt O15520 38-208, looked up)
Fibroblast growth factor 10: QALGQDMVSPEATNSSSSSFSSPSSAGRHVRSYNHLQGDVRWRKLFSFTKYFLKIEKNGKVSGTKKENCPYSILEITSVEIGVVAVKAINSNYYLAMNKKGKLYGSKEFNNDCKLKERIEENGYNTYASFNWQHNGRQMYVALNGKGAPRRGQKTRRKNTSAHFLPMVVHS
For B1, the “time spheroids could expand and be passaged” value [4] was “over 100 days”.
